Where “and” joins values, the source holds several entries; their conditions need not be identical. Equal entries are not always repeated.
Key:
[1] = Liquid, Closed cell (Static) method
[2] = excess molar enthalpy (molar enthalpy of mixing); xn = mol fraction of the nth substance listed; conditions: Liquid, Flow calorimetry

CC(=O)N(C)C [N,N-dimethylethanamide]
[1]
Conditions	vapor or sublimation pressure
328.15 K	1.61 kPa and 1.64 kPa
333.15 K	2.23 kPa
343.15 K	3.39 kPa
353.15 K	5.32 kPa [middle of 5 runs]
363.15 K	8.46 kPa

CC(=O)N(C)C [N,N-dimethylethanamide] + CCCCCC
[2]
Conditions	excess molar enthalpy [kcal/mol]
363.15 K, 1982 kPa, x2 = 0.0358	0.0559
363.15 K, 1982 kPa, x2 = 0.0726	0.114
363.15 K, 1982 kPa, x2 = 0.1106	0.168
363.15 K, 1982 kPa, x2 = 0.1498	0.218
363.15 K, 1982 kPa, x2 = 0.1902	0.262
363.15 K, 1982 kPa, x2 = 0.2319	0.302
363.15 K, 1982 kPa, x2 = 0.275	0.337
363.15 K, 1982 kPa, x2 = 0.3196	0.366
363.15 K, 1982 kPa, x2 = 0.3657	0.391
363.15 K, 1982 kPa, x2 = 0.4134	0.41
363.15 K, 1982 kPa, x2 = 0.4627	0.419
363.15 K, 1982 kPa, x2 = 0.5138	0.426
363.15 K, 1982 kPa, x2 = 0.5668	0.426
363.15 K, 1982 kPa, x2 = 0.6218	0.418
363.15 K, 1982 kPa, x2 = 0.6788	0.4
363.15 K, 1982 kPa, x2 = 0.7381	0.37
363.15 K, 1982 kPa, x2 = 0.7997	0.324
363.15 K, 1982 kPa, x2 = 0.8638	0.258
363.15 K, 1982 kPa, x2 = 0.9305	0.157
413.15 K, 1824 kPa, x2 = 0.0179	0.0289
413.15 K, 1824 kPa, x2 = 0.0361	0.059
413.15 K, 1824 kPa, x2 = 0.0733	0.117
413.15 K, 1824 kPa, x2 = 0.1116	0.17
413.15 K, 1824 kPa, x2 = 0.151	0.218
413.15 K, 1824 kPa, x2 = 0.1917	0.262
413.15 K, 1824 kPa, x2 = 0.2337	0.304
413.15 K, 1824 kPa, x2 = 0.277	0.338
413.15 K, 1824 kPa, x2 = 0.3217	0.369
413.15 K, 1824 kPa, x2 = 0.3679	0.396
413.15 K, 1824 kPa, x2 = 0.4157	0.421
413.15 K, 1824 kPa, x2 = 0.4651	0.433
413.15 K, 1824 kPa, x2 = 0.5163	0.441
413.15 K, 1824 kPa, x2 = 0.5692	0.442
413.15 K, 1824 kPa, x2 = 0.6241	0.434
413.15 K, 1824 kPa, x2 = 0.681	0.415
413.15 K, 1824 kPa, x2 = 0.74	0.386
413.15 K, 1824 kPa, x2 = 0.8013	0.337
413.15 K, 1824 kPa, x2 = 0.8649	0.264
413.15 K, 1824 kPa, x2 = 0.9311	0.158
413.15 K, 1824 kPa, x2 = 0.9652	0.086

CC(=O)N(C)C [N,N-dimethylethanamide] + CCCCCCC
[2], 413.15 K, 1824 kPa
Conditions	excess molar enthalpy [kcal/mol]
x2 = 0.016	0.0308
x2 = 0.0323	0.0619
x2 = 0.0659	0.122
x2 = 0.1007	0.177
x2 = 0.137	0.228
x2 = 0.1747	0.276
x2 = 0.2139	0.319
x2 = 0.2548	0.358
x2 = 0.2974	0.393
x2 = 0.3419	0.423
x2 = 0.3883	0.449
x2 = 0.4369	0.466
x2 = 0.4878	0.476
x2 = 0.5411	0.48
x2 = 0.597	0.474
x2 = 0.6557	0.456
x2 = 0.7175	0.427
x2 = 0.7825	0.376
x2 = 0.8511	0.299
x2 = 0.9234	0.181
x2 = 0.9612	0.0999

CC(=O)N(C)C [N,N-dimethylethanamide] + CCO
[2], 413.15 K, 1824 kPa
Conditions	excess molar enthalpy [kcal/mol]
x2 = 0.0774	-0.0421
x2 = 0.1505	-0.077
x2 = 0.2528	-0.116
x2 = 0.3471	-0.143
x2 = 0.462	-0.163
x2 = 0.541	-0.168
x2 = 0.6146	-0.166
x2 = 0.6833	-0.154
x2 = 0.7476	-0.138
x2 = 0.8271	-0.109
x2 = 0.8826	-0.0805
x2 = 0.9349	-0.049
x2 = 0.9681	-0.0258

CC(=O)N(C)C [N,N-dimethylethanamide] + CCOC(C)=O
[2], 323.15 K, 1307 kPa
Conditions	excess molar enthalpy [kcal/mol]
x2 = 0.0476	0.00669
x2 = 0.0954	0.0126
x2 = 0.1435	0.0188
x2 = 0.1918	0.0239
x2 = 0.2404	0.0284
x2 = 0.2892	0.0327
x2 = 0.3383	0.0361
x2 = 0.3876	0.0392
x2 = 0.4372	0.0413
x2 = 0.487	0.043
x2 = 0.5371	0.044
x2 = 0.5875	0.0437
x2 = 0.6381	0.043
x2 = 0.689	0.0409
x2 = 0.7401	0.0382
x2 = 0.7916	0.0344
x2 = 0.8433	0.0287
x2 = 0.8952	0.0212
x2 = 0.9475	0.0119

CC(=O)N(C)C [N,N-dimethylethanamide] + CO
[2], 413.15 K, 1824 kPa
Conditions	excess molar enthalpy [kcal/mol]
x2 = 0.1079	-0.0748
x2 = 0.2034	-0.13
x2 = 0.2885	-0.17
x2 = 0.3648	-0.196
x2 = 0.4337	-0.212
x2 = 0.4961	-0.22
x2 = 0.553	-0.221
x2 = 0.605	-0.217
x2 = 0.6527	-0.207
x2 = 0.6967	-0.197
x2 = 0.7374	-0.181
x2 = 0.7751	-0.163
x2 = 0.8101	-0.145
x2 = 0.8428	-0.125
x2 = 0.8733	-0.105
x2 = 0.9019	-0.0848
x2 = 0.9287	-0.0633
x2 = 0.9539	-0.0423
x2 = 0.9776	-0.0213
